Data: patent US9260731B2 (RELIANCE INDUSTRIES LIMITED, priority 2012, dated 2016)
Where two headings read alike, the source gives them in different places.

How the values were obtained:
[1] = system: solvent-tolerant mutant C. acetobutylicum MTCC 5587; test: Rhodamine 6G accumulation on AT agar, solvent-tolerant mutant; type: cell-based, Clostridium acetobutylicum; settings: 100 μg/ml in AT agar, 24 h, 37° C., anaerobic
Experimental: (§1) Cells of overnight culture of wild type and solvent-tolerant mutant C. acetobutylicum MTCC 5587 were spotted on AT agar with or without rhodamine 6G (100 μg/ml) and incubated at 37° C. in anaerobic chamber for 24 h. Accumulation of rhodamine 6G was monitored under UV light (Lazaroaie, 2009).

[2] = system: wild type C. acetobutylicum; test: Rhodamine 6G accumulation on AT agar, wild type; type: cell-based, Clostridium acetobutylicum; settings: 100 μg/ml in AT agar, 24 h, 37° C., anaerobic
Experimental: as §1

[3] = system: C. acetobutylicum ATCC 4259 (wild type strain)
Source text: (§2) The tolerance and growth profile of the mutant was monitored with respect to time.

[4] = system: C. acetobutylicum MTCC 5587 (mutant strain B90)
Experimental: Chemical mutagenesis was carried out using MNNG (1-methyl-3-nitro-1-nitrosoguanidine). Alternate thioglycolate (AT) media was inoculated with C. acetobutylicum ATCC 4259 from the stab culture. After 12 h growth at 37° C., the culture was harvested and centrifuged. The cell pellet was washed with 2 ml citrate buffer (pH 5.8) and 100 μl of MNNG (stock solution 100 mg/ml prepared in sterilized distilled water) was added to the cells, incubated at 30° C. for 70 min. The mutagenised cell mass was centrifuged and the supernatant discarded appropriately in biohazard containers. The cells were washed twice with AT broth and resuspended in 1 ml AT broth.
as §2

| Compound | accumulation of rhodamine 6G intracellularly (colony colour under UV light) [1] | accumulation of rhodamine 6G (colony colour under UV light) [2] | butanol tolerated in the medium, beyond which there was cessation of growth [3] | growth in presence of butanol ([4]; 3.8% butanol) | growth in presence of butanol ([4]; 4% butanol) | growth in presence of butanol ([4]; at the highest tolerated levels of butanol (up to […] v/v)) | butanol tolerated in the AT medium ([4]; mutant strain, AT medium) |
| --- | --- | --- | --- | --- | --- | --- | --- |
| CCN=c1cc2oc3cc(NCC)c(C)cc3c(-c3ccccc3C(=O)OCC)c-2cc1C.Cl [rhodamine 6G] | high accumulation | comparatively lower dye accumulation | – | – | – | – | – |
| n-butanol | – | – | up to 1.5% | no growth | no growth | extremely slow and feeble | up to 3.5 % (v/v) |
